Assays:
[1] = Red blood cell MTXPG concentrations in 14 polyarthritis patients on low dose weekly methotrexate (HPLC-fluorometry)
Description: The liquid chromatograph was an Agilent 1100 HPLC chemstation system composed of a quaternary pump, a system controller, an autoinjector, a sample cooler kept at 4° C., and a fluorometer. […] Methotrexate polyglutamates were detected with post-column derivatization using a photochemical reactor unit (Aura Industries, New York, N.Y.) equipped with an elongated 254 nm low pressure mercury ultraviolet lamp and containing a 1/16″ outer diameter TEFLON™ tubing (internal diameter 0.25 mm) assembled as a knitted coil and connected on-line between the analytical column and fluorometer. […] Methotrexate polyglutamate photolytic products were measured at an excitation wavelength of 274 nm and an emission wavelength of 464 nm, unless otherwise indicated. The retention times described herein were measured from time of injection to time of detection at the post-reactor unit fluorometer.
HPLC separation was performed on a 25 cm×4.6 mm X Terra MS C18 column (Waters, Milford, Mass.), 5 μm particle size, protected by a guard column. […] Methotrexate polyglutamate photolytic products were analyzed at an excitation wavelength of 274 nm and an emission wavelength of 464 nm. […]
Results were expressed as nmol/L packed red blood cells, and patient results were expressed as an average plus or minus the standard error of the mean (±SEM). […]

[2] = human, in vivo
Description: Red blood cell methotrexate polyglutamate concentrations were measured as described further below using HPLC-fluorometry with post-column photo-oxidation technique. The technologist in charge of quantification of red blood cell methotrexate polyglutamates was blinded to patients' clinical information.
Mobile phase B consisted of acetonitrile.
Red blood cell long-chain MTXPG concentrations were measured as described previously using an HPLC-fluorometry procedure with post-column photo-oxidation technique (Dervieux, Clin Chem. (2003)). The technologist performing the quantification of RBC MTXPGs (up to the penta-order of glutamation) was blinded to patient's information.
The quantification limit of the analytical method is 5 nmol/L and the detection limit is 2 nmol/L packed RBC (for all MTXPG species) (Dervieux, Clin Chem. (2003)).

[3] = test system: patients with rheumatoid arthritis; assay: Cross-sectional clinical study of methotrexate effects in patients with rheumatoid arthritis (joint counts, VAS, mHAQ; regression analyses); type: in vivo, human; parameters: key to Physician's assessment of disease activity visual analog score (VAS), mean / Physician assessment of disease activity VAS: 10 cm visual analog scale; key to Modified health assessment questionnaire (mHAQ) score, mean / Modified Health assessment questionnaire: mean of 8 items, each 0 = without any difficulty to 3 = unable to do
Description: In this cross-sectional study, eligibility was limited to patients of at least 18 years of age who met the revised criteria of the American Rheumatism Association for Rheumatoid Arthritis and had received low dose methotrexate therapy for at least three months. Some patients were on additional medications for rheumatoid arthritis, including low dose corticosteroids (<10 mg day), and folic acid supplementation (1 mg/day). The Institutional Review Board approved the study, and patient consent was obtained.
Patient characteristics were collected at the time of the enrollment in the clinical study. Clinical assessment included a tender joint count, a swollen joint count, a Physician's Assessment of Disease Activity (using a 10 cm visual analog scale (VAS)), and a Patient's Assessment of Physical Function using the modified-Health Assessment Questionnaire (m-HAQ). The mHAQ is the average score obtained on eight items addressed to the patient to assess loss of typical lifestyle activities. Scoring of items within each is from 0 (without any difficulty) to 3 (unable to do). The eight items are as follows: 1: dress yourself, 2: get in and out of bed, 3: lift a full glass to your mouth, 4: walk, 5: wash and dry entire body, 6: bend down and pick up clothing, 7: turn faucets on and off, and 8: get in and out of a car. In addition to these standards, the American College of Rheumatology measures, and a Physician's Assessment of Response to methotrexate scored on a 10 cm visual analogue scale (VAS) were also used. In this visual analogue scale, “0” is defined as a perfect response, while “10” is defined as no response. Based on these definitions, a physician's assessment of response to MTX below group median corresponds to a perception of response above group median. Clinical data were collected on case report forms at the time of the clinical visit, and the physician and each patient were blinded to all laboratory parameters throughout the entire study. Furthermore, using the VAS for the physician's assessment of disease activity and the physician's assessment of response to methotrexate, the highest 25th percentiles for disease activity or response to methotrexate were calculated. Chi-square analysis was applied, and odds ratios (OR) were calculated.
Genotyping was performed as follows: Whole blood (EDTA) was drawn the day of the clinical visit; genomic DNA was extracted using a Generation Purification Capture Column (Gentra Systems, Inc; Minneapolis, Minn.). The RFC-1 G80A polymorphism, which results in a […] substitution at codon 27 of RFC-1, was detected using the PCR RFLP method described in Chango et al., supra, 2000. The ATIC C347G polymorphism, which results in a threonine to serine substitution at position 116 of ATIC, was determined with a real time TaqMan allelic discrimination assay performed using fluorogenic 3′-minor groove binding probes. The forward primer sequence was 5′-[…]-3′ (SEQ ID NO:3), and the reverse primer sequence was 5′-[…]-3′ (SEQ ID NO:4). Allelic discrimination was performed using the wild-type fluorescent probe 5′-FAM-[…]-MGB 3′ (SEQ ID NO:5) and the mutant fluorescent probe 5′-VIC-[…]-MGB 3′ (SEQ ID NO:6). Final reaction conditions were as follows: 900 nM of each primer, 200 nM of each probe, 5 ng genomic DNA, and a 1×TaqMan master mix (Applied Biosystems; Foster City, Calif.). PCR reactions were incubated for one 2-minute cycle at 50° C., a 10-minute cycle at 95° C., and 40 cycles of 95° C. for 15 seconds, 58° C. for 15 seconds, and finally 60° C. for 45 seconds. Statistical analyses were performed using Statistica (StatSoft Inc., Tulsa, Okla.) essentially as follows. […]

[4] = multivariate regression with RFC-1, ATIC, TSER genotypes, adjusted for corticosteroids and folic acid
[5] = 108 patients on methotrexate, mean ± SEM
[6] = 108 patients on methotrexate, median (range)
[7] = multivariate linear regression adjusted for corticosteroids and folic acid

CN(Cc1cnc2nc(N)nc(N)c2n1)c1ccc(C(=O)N[C@@H](CCC(=O)N[C@@H](CCC(=O)N[C@@H](CCC(=O)O)C(=O)O)C(=O)O)C(=O)O)cc1 [MTXPG3, 4-amino-10-methylpteroyltri-glutamic acid]
Average share of total methotrexate polyglutamates ([1]; 14 patients, RBC): 55%
Median RBC long-chain MTXPGs concentration (MTXPG3) [2]: 40 nmol/L
RBC long-chain MTXPGs concentration (MTXPG3), range [2]: <5 to 131 nmol/L
Logistic regression estimate for MTXPG3: probability of total number of tender and swollen joints below group median ([3]; FIG. 4A, model with MTXPG3 only, estimate ± standard error): 0.022±0.008
Logistic regression estimate for MTXPG3: probability of physician assessment of Disease activity VAS below group median ([3]; FIG. 4B, model with MTXPG3 only): 0.024±0.009
Logistic regression estimate for MTXPG3: probability of physician assessment of response to methotrexate VAS below group median ([3]; FIG. 4C, model with MTXPG3 only): 0.034±0.01
Logistic regression estimate for MTXPG3: probability of mHAQ below group median ([3]; FIG. 4D, model with MTXPG3 only): 0.014±0.008
Logistic regression estimate for MTXPG3: probability of total number of tender and swollen joints below group median ([3]; FIG. 5A, model with MTXPG3 and RFC-1 G80A genotype): 0.022±0.009
Logistic regression estimate for MTXPG3: probability of physician assessment of Disease activity VAS below group median ([3]; FIG. 5B, model with MTXPG3 and RFC-1 G80A genotype): 0.024±0.009
Logistic regression estimate for MTXPG3: probability of physician assessment of response to methotrexate VAS below group median ([3]; FIG. 5C, model with MTXPG3 and RFC-1 G80A genotype): 0.033±0.010
Logistic regression estimate for MTXPG3: probability of mHAQ below group median ([3]; FIG. 5D, model with MTXPG3 and RFC-1 G80A genotype): 0.015±0.008
Logistic regression estimate for MTXPG3: probability of total number of tender and swollen joints below group median ([3]; FIG. 6A, model with MTXPG3 and ATIC C347G genotype): 0.024±0.009
Logistic regression estimate for MTXPG3: probability of physician assessment of Disease activity VAS below group median ([3]; FIG. 6B, model with MTXPG3 and ATIC C347G genotype): 0.025±0.009
Logistic regression estimate for MTXPG3: probability of physician assessment of response to methotrexate VAS below group median ([3]; FIG. 6C, model with MTXPG3 and ATIC C347G genotype): 0.038±0.010
Logistic regression estimate for MTXPG3: probability of mHAQ below group median ([3]; FIG. 6D, model with MTXPG3 and ATIC C347G genotype): 0.013±0.008
Logistic regression estimate for MTXPG3: probability of total number of tender and swollen joints below group median ([3]; FIG. 7A, model with MTXPG3 and PGENi (RFC-1, ATIC)): 0.023±0.009
Logistic regression estimate for MTXPG3: probability of physician assessment of Disease activity VAS below group median ([3]; FIG. 7B, model with MTXPG3 and PGENi (RFC-1, ATIC)): 0.025±0.009
Logistic regression estimate for MTXPG3: probability of physician assessment of response to methotrexate VAS below group median ([3]; FIG. 7C, model with MTXPG3 and PGENi (RFC-1, ATIC)): 0.036±0.010
Logistic regression estimate for MTXPG3: probability of mHAQ below group median ([3]; FIG. 7D, model with MTXPG3 and PGENi (RFC-1, ATIC)): 0.014±0.009
MTXPG3 estimate, logistic regression: probability of physician's assessment of patient's response to MTX VAS≦2 cm ([3]; FIG. 12B): 0.035±0.01
Estimate ± SEM of RBC MTXPG3 (nmol/L) for Modified Health assessment questionnaire [3, 4]: −0.002 ± 0.002
Estimate ± SEM of RBC MTXPG3 (nmol/L) for Number of Swollen joints [3, 4]: −0.035 ± 0.019
Estimate ± SEM of RBC MTXPG3 (nmol/L) for Number of Tender joints [3, 4]: −0.047 ± 0.23
Estimate ± SEM of RBC MTXPG3 (nmol/L) for Patient's Global assessment of disease activity VAS [3, 4]: −0.004 ± 0.009
Estimate ± SEM of RBC MTXPG3 (nmol/L) for Physician's Global assessment of disease activity VAS [3, 4]: −0.025 ± 0.008
Estimate ± SEM of RBC MTXPG3 (nmol/L) for Physician's assessment of Patient's response to MTX VAS [3, 4]: −0.026 ± 0.007
Fold more likely to have clinical responsiveness to the chemotherapy above average ([3]; patients with RBC MTXPG3 levels above 60 nmol/L): 12.7 fold

CN(Cc1cnc2nc(N)nc(N)c2n1)c1ccc(C(=O)N[C@@H](CCC(=O)O)C(=O)O)cc1 [Methotrexate, 4-amino-10-methylpteroylglutamic acid]
RBC concentration in a patient sample ([1]; one patient on 17.5 mg weekly methotrexate for at least 3 months): 27 nmol/L
Modified Health assessment questionnaire [3, 5]: 0.55 ± 0.05
Number of Swollen joints (maximum 22) [3, 5]: 4.0 ± 0.5
Number of Tender joints (maximum 22) [3, 5]: 5.0 ± 0.6
Patient assessment of disease activity VAS [3, 5]: 4.1 ± 0.2
Physician assessment of disease activity VAS [3, 5]: 3.5 ± 0.2
Modified Health Assessment Questionnaire (mHAQ score) [3, 6]: 0.375 (0-2)
Number of swollen and tender joints (total number) [3, 6]: 5.5 (0-44)
Physician assessment of disease activity (10 cm VAS score) [3, 6]: 2.9 (0.1-8.4)
Physician assessment of response to Methotrexate VAS ([3]; 108 patients, mean ± SEM): 2.7 ± 0.2
Physician assessment of response to methotrexate (10 cm VAS score) ([3]; 108 patients, median (range), 0 perfect response, 10 no response): 2.1 (0.1-8.3)
Mean number of swollen joints ([3]; PGENi=0 (n=58 patients)): 5.5±0.8
Modified health assessment questionnaire (mHAQ) score, mean ([3]; PGENi=0 (n=58 patients)): 0.68±0.07
Physician's assessment of disease activity visual analog score (VAS), mean ([3]; PGENi=0 (n=58 patients)): 4.1±0.3
Physician's assessment of response to MTX, mean ([3]; PGENi=0 (n=58 patients)): 3.0±0.2
Mean number of tender joints ([3]; PGENi=0 (n=58 patients), PGENi from RFC-1, ATIC, TS homozygosity): 6.4±0.9
Mean number of swollen joints ([3]; PGENi=1 to 3 (n=50 patients)): 2.3±0.4
Mean number of tender joints ([3]; PGENi=1 to 3 (n=50 patients)): 3.3±0.9
Modified health assessment questionnaire (mHAQ) score, mean ([3]; PGENi=1 to 3 (n=50 patients)): 0.39±0.06
Physician's assessment of disease activity visual analog score (VAS), mean ([3]; PGENi=1 to 3 (n=50 patients)): 2.6±0.3
Physician's assessment of response to MTX, mean ([3]; PGENi=1 to 3 (n=50 patients)): 2.3±0.3
Estimate ± SEM of methotrexate dose (mg/week) for Modified Health assessment questionnaire [3, 7]: −0.017 ± 0.009; p = 0.09
Estimate ± SEM of methotrexate dose (mg/week) for Number of Tender joints [3, 7]: −0.17 ± 0.12; p = 0.15
Estimate ± SEM of methotrexate dose (mg/week) for Physician assessment of disease activity VAS [3, 7]: −0.088 ± 0.044; p = 0.06
Fold more likely to have a good response to methotrexate therapy ([3]; patients with a PGENi between 1-3 (sum of homozygous variant genotypes)): 3.7 fold
Fold more likely to have Physician's Assessment of Patient's Response to Methotrexate VAS≦2 cm (good response) ([3]; pharmacogenetic index above 2 (index 0 to 5, variant alleles counted)): 4.7 fold

— patent US7582282B2, “Methods for optimizing clinical responsiveness to methotrexate therapy using metabolite profiling and pharmacogenetics” (Prometheus Laboratories Inc., priority 2003, dated 2009)
